According to patent US5922582A, “Indole alkaloid type compound 0089-D” (HIGETA SHOYU Co., Ltd., priority 1998, dated 1999):
≈ marks a conversion by molar mass, not a printed value.

Legend:
[1] = test system: Nocardia brasiliensis IFM 0089; test: Susceptibility to antibiotics of the producing strain; assay type: cell-based
Protocol: The present strain was cultured in a medium (brain heart infusion containing 2% glucose) at 250 rpm at 30° C. for 72 hours with shaking, and the cells grown in the medium was harvested by centrifugation (3000 rpm×10 minutes) and washed twice with distilled water. Further, the cells were washed with ethanol and then dried under vacuum to give the dried cells. The amino acid composition, sugar composition and lipid composition of the cell wall of this dried cells were examined on the basis of Bergey's Manual of Determinative Bacteriology, 9th ed., Williams, Baltimore, 1993. Meso-diaminopimelic acid was detected in the amino acid analysis, and arabinose and galactose were detected in the sugar analysis. The presence of mycolic acid was confirmed from the result of the lipid analysis, and its type was Nocardia type. Isoprenoid quinone, i.e., a cell lipid component was confirmed to contain MK-8 (H4) cycle as a major component. The present strain was identified as Nocardia brasiliensis, further from its ability to assimilate casein, hypoxanthine and tyrosine and from its production pattern of acid from sugar and its susceptibility pattern to antimicrobial agents as shown in Table 4 (Mikami & Yazawa, Susceptibility pattern of pathogenic Nocardia to some selected antimicrobial agents and their usefulness in the identification work in a clinical laboratory: Bull. JFCC "Bulltein of the Japan Federation for Culture Collections", 5: 89-95, 1989).

[2] = test system: cultured tumor cells (P388, P388/ADR, L1210 and KB); test: Cytotoxicity on the cultured tumor cells, overall (MTT); assay type: cell-based; conditions: in words
Protocol: (§1) Cytotoxicity of compound 0089-D on cultured tumor cell lines, P388, adriamycin resistant P388 (P388/ADR), L1210 and KB was examined in the following manner.
(§2) L1210 was suspended in RPMI1640 medium, P388 and P388/ADR in RPMI1640 medium containing 20 μM of 2-mercaptoethanol, and KB in Dulbecco's MEM medium (any medium contained 10% fetal bovine serum) respectively whereby cell suspension (5.6×10^4 cells/ml) were prepared. The test sample was dissolved in methanol and diluted serially with each medium to give solutions containing the test sample at various concentrations. […] 72 hours thereafter, cell growth was measured by the following calorimetric assay method using 3-(4,5-dimethyl-2-thiazolyl)-2,5-diphenyl-2H-tetrazolium bromide (MTT).
(§3) That is, 20 μl of 2 mg/ml MTT solution was added to each well and the cells were incubated for 4 hours at 37° C. Thereafter, 50 μl of 50% dimethylformamide solution containing 20% sodium dodecyl sulfate was added to each well to dissolve the formed violet formazan crystal, and its absorbance at 570 nm was measured in a microplate reader (immunoreader) and used as an indicator of the growth. […]
(§4) Degree of inhibition=[1--(absorbance in the presence of test sample)/(absorbance in the absence of test sample)]×100

KB cells = test: Cytotoxicity on cultured tumor cell line KB (MTT); assay type: cell-based; conditions: Homo sapiens, 72 hours, read-out: IC50 (growth of tumor cells)
Protocol: as §1, §2, §3, §4

N. nova IFM0290 = test: Antimicrobial activity, MIC; assay type: cell-based; conditions: N. nova IFM0290, Muller Hinton broth, 37° C., 24 hours
Protocol: (§5) The antimicrobial activity of compound 0089-D on various microorganisms was confirmed by determining minimum inhibitory concentration (MIC) on growth.
(§6) The MIC of compound 0089-D for various microorganisms was determined in a Muller Hinton broth (BBL) containing 0.2% glucose according to the regulations of the Japan Chemotherapy Association (The Essentials of Antibiotics, 4th ed., Tokyo University Press, 1992).
(§7) Each test microorganism was prepared at density of 1×10^6 cfu/ml in the above medium to prepare a test microorganism liquid.
(§8) The test sample (compound 0089-D) was dissolved in methanol and diluted in the above Muller Hinton broth by subjecting it to serial 2-fold dilution starting at the concentration of 1 mg/ml. 180 μl of the test microorganism liquid and 20 μl of the test sample solution were put through a pipette to a 96-well micro-titer plate and incubated at 37° C. 24 hours thereafter, growth was examined by the eye to determine MIC.

N. asteroides IFM0319 = test: Antimicrobial activity, MIC; assay type: cell-based; conditions: Nocardia asteroides; N. asteroides IFM0319, Muller Hinton broth, 37° C., 24 hours
Protocol: as §5, §6, §7, §8

Bacillus subtilis PCI189 = test: Antimicrobial activity, MIC; assay type: cell-based; conditions: Bacillus subtilis PCI189, Muller Hinton broth, 37° C., 24 hours
Protocol: as §5, §6, §7, §8

[3] = test system: Nocardia transvalensis IFM0333; test: Antimicrobial activity, MIC; assay type: cell-based; conditions: Nocardia transvalensis IFM0333, Muller Hinton broth, 37° C., 24 hours
Protocol: as §5, §6, §7, §8

[4] = test system: Mycobacterium smegmatis ATCC607; test: Antimicrobial activity, MIC; assay type: cell-based; conditions: Mycolicibacterium smegmatis; Mycobacterium smegmatis ATCC607, Muller Hinton broth, 37° C., 24 hours
Protocol: as §5, §6, §7, §8

[5] = test system: N. otitidiscaviarum IFM0239; test: Antimicrobial activity, MIC; assay type: cell-based; conditions: N. otitidiscaviarum IFM0239, Muller Hinton broth, 37° C., 24 hours
Protocol: as §5, §6, §7, §8

N. farcinica IFM0284 = test: Antimicrobial activity, MIC; assay type: cell-based; conditions: Nocardia farcinica; N. farcinica IFM0284, Muller Hinton broth, 37° C., 24 hours
Protocol: as §5, §6, §7, §8

M. phlei ATCC11758 = test: Antimicrobial activity, MIC; assay type: cell-based; conditions: Mycolicibacterium phlei; M. phlei ATCC11758, Muller Hinton broth, 37° C., 24 hours
Protocol: as §5, §6, §7, §8

M. flavescens ATCC14474 = test: Antimicrobial activity, MIC; assay type: cell-based; conditions: Mycolicibacterium flavescens; M. flavescens ATCC14474, Muller Hinton broth, 37° C., 24 hours
Protocol: as §5, §6, §7, §8

[6] = test system: Micrococcus luteus IFM2066; test: Antimicrobial activity, MIC; assay type: cell-based; conditions: Micrococcus luteus IFM2066, Muller Hinton broth, 37° C., 24 hours
Protocol: as §5, §6, §7, §8

[7] = test system: N. pseudobrasiliensis IFM0624; test: Antimicrobial activity, MIC; assay type: cell-based; conditions: N. pseudobrasiliensis IFM0624, Muller Hinton broth, 37° C., 24 hours
Protocol: as §5, §6, §7, §8

N. brasiliensis IFM0236 = test: Antimicrobial activity, MIC; assay type: cell-based; conditions: N. brasiliensis IFM0236, Muller Hinton broth, 37° C., 24 hours
Protocol: as §5, §6, §7, §8

Micrococcus luteus = test: Paper disk method, growth inhibition of Micrococcus luteus; assay type: cell-based; conditions: nutrient agar, 30° C., 24 hours
Protocol: The resulting culture, 150 L, was filtered through a filter cloth whereby the cells were recovered. The operation of extracting the cells was carried out by adding 20 L methanol. The thus-obtained extract was concentrated and evaporated into dryness in an evaporator. 1 L distilled water was added to 4 g of the dried matter to give a suspension, which was then partitioned and extracted 3 times with 1 L of n-hexane. The n-hexane fraction, 3 L, was concentrated and evaporated into dryness in an evaporator, dissolved in 8 ml of an n-hexane:ethyl acetate mixture (20:1) and subjected to silica gel chromatography (column 6 cm×20 cm). After impurities were eluted with 2 L of an n-hexane : ethyl acetate mixture (20 1), compound 0089-D was eluted with 2 L of an n-hexane:ethyl acetate mixture (10:1). Detection of compound 0089-D in the eluted fraction was carried out using growth inhibitory activity on a test microorganism Micrococcus luteus as the indicator by the following paper disk method.
The eluted fraction was adsorbed onto a paper disk and placed on a nutrient agar medium (Difco) on which M. luteus had been spread, and then incubated at 30° C. for 24 hours.

Solubility = assay type: physicochemical
P388 cells = test: Cytotoxicity on cultured tumor cell line P388 (MTT); assay type: cell-based; conditions: Mus musculus, P388, 72 hours, read-out: IC50 (growth of tumor cells)
Protocol: as §1, §2, §3, §4

various microorganisms = test: Antimicrobial activity on various microorganisms, overall; assay type: cell-based; conditions: in words
Protocol: as §5, §6, §7
(§9) To determine MIC for fungi, Sabouraud's Dextrose liquid medium was used and the density of the test fungi was 1×10^4 cfu/ml.
as §8

[8] = test system: Aspergillus niger ATCC40606; test: Antimicrobial activity, MIC (fungi); assay type: cell-based; conditions: Aspergillus niger ATCC40606, Sabouraud's Dextrose liquid medium, 37° C., 24 hours
Protocol: as §5, §6, §9, §8

[9] = test system: Candida albicans ATCC90028; test: Antimicrobial activity, MIC (fungi); assay type: cell-based; conditions: Candida albicans ATCC90028, Sabouraud's Dextrose liquid medium, 37° C., 24 hours
Protocol: as §5, §6, §9, §8

[10] = test system: adriamycin-resistant P388 (P388/ADR) cells; test: Cytotoxicity on adriamycin resistant P388 (P388/ADR) (MTT); assay type: cell-based; conditions: 72 hours, read-out: IC50 (growth of tumor cells)
Protocol: as §1, §2, §3, §4

L1210 cells = test: Cytotoxicity on cultured tumor cell line L1210 (MTT); assay type: cell-based; conditions: Mus musculus, L1210, 72 hours, read-out: IC50 (growth of tumor cells)
Protocol: as §1, §2, §3, §4

For `O=c1[nH]cc(F)c(=O)[nH]1` [Compound 5-FU, 5-FU], the Susceptibility to antibiotics [1] was “negative”.

For `[C-]#[N+]C(=C\c1cn(C)c2ccccc12)/C=C/C(=C)C` [Compound 0089-D], the “cytotoxicity on the cultured tumor cells” value [2] was “strong cytotoxicity”, the IC50 (KB cells) was 0.75 µg/mL (≈ 3.02 µM) and the MIC (N. nova IFM0290) was 1.56 µg/mL (≈ 6.28 µM). It also gave an MIC (N. asteroides IFM0319) of 12.5 µg/mL (≈ 50.3 µM), an MIC (Bacillus subtilis PCI189) of 3.13 µg/mL (≈ 12.6 µM) and an MIC [3] of 3.13 µg/mL (≈ 12.6 µM). It also gave an MIC [4] of 0.78 µg/mL (≈ 3.14 µM), an MIC [5] of 6.25 µg/mL (≈ 25.2 µM) and an MIC (N. farcinica IFM0284) of 12.5 µg/mL (≈ 50.3 µM). The MIC (M. phlei ATCC11758) was 1.56 µg/mL (≈ 6.28 µM), the MIC (M. flavescens ATCC14474) was 3.13 µg/mL (≈ 12.6 µM) and the MIC [6] was 3.13 µg/mL (≈ 12.6 µM). For the same compound, the MIC [7] was 3.13 µg/mL (≈ 12.6 µM), the MIC (N. brasiliensis IFM0236) was 25 µg/mL (≈ 101 µM) and the “inhibition zone of growth” value (Micrococcus luteus) was “inhibition zone of growth of M. luteus”. The Solubility (Solubility; ether) was “Soluble”, the Solubility (Solubility; ethyl acetate) was “Soluble” and the Solubility (Solubility; hexane) was “Slightly soluble”. For the same compound, the Solubility (Solubility; methanol) was “Soluble”, the Solubility (Solubility; water) was “Insoluble” and the IC50 (P388 cells) was 0.44 µg/mL (≈ 1.77 µM). The antimicrobial spectrum (various microorganisms) was “wide antimicrobial spectrum”, the MIC [8] was 0.39 µg/mL (≈ 1.57 µM) and the MIC [9] was 25 µg/mL (≈ 101 µM). For the same compound, the IC50 [10] was 0.56 µg/mL (≈ 2.26 µM) and the IC50 (L1210 cells) was 0.25 µg/mL (≈ 1.01 µM).

With `C[C@@H](O)[C@H]1C(=O)N2C(C(=O)O)=C(SCCN=CN)C[C@H]12` [imipenem] the Susceptibility to antibiotics [1] was “negative”.

For `NC[C@H]1O[C@H](O[C@H]2[C@H](O)[C@@H](O[C@H]3O[C@H](CO)[C@@H](O)[C@H](N)[C@H]3O)[C@H](N)C[C@@H]2N)[C@H](O)[C@@H](O)[C@@H]1O` [kanamycin], the Susceptibility to antibiotics [1] was “negative”.

With `NC[C@H]1O[C@H](O[C@H]2[C@H](O)[C@@H](O[C@H]3O[C@H](CO)[C@@H](O)[C@H](N)[C@H]3O)[C@H](N)C[C@@H]2N)[C@H](N)C[C@@H]1O` [tobramycin] the Susceptibility to antibiotics [1] was “positive”.
